In patent publication US8304443B2, “Indazole derivatives” (Asahi Kasei Pharma Corporation, priority 2008, dated 2012):
pEC50: −log10 of the molar value.

Key:
[1] = Test example 13: stability test in pure water; format: physicochemical; settings: for stability in pure water (finding): up to 48 hours
Experimental: (§1) Test compound is prepared to saturation state in pure water. The resulting solution is shaken at room temperature for 1 hour. To a filter tube, the entire solution obtained after the shaking is transferred and is subjected to centrifugal filtration at room temperature. The filtrate is analyzed by HPLC right after the filtration, 24 hours, and 48 hours after the filtration. Then, by using a calibration curve, stability of the test compound is obtained from the peak area value.
Standard solution is prepared by precisely weighing each test compound and fully dissolving it in pure water. Calibration curve is established by having the concentration of the standard solution as a horizontal axis and the HPLC area value at the corresponding concentration as a vertical axis.
As a separation column, YMC-Pack C18 (4.6 mm×150 mm, manufactured by YMC) is used. Detection is made at UV-254 nm and the temperature inside the column is 40° C. Condition for elution is as follows; with flow rate of 1 ml/minute, solution A as a solvent=water [comprising 0.1% (v/v) acetic acid] and solution B=acetonitrile are used, and from minute 0 to minute 20, 5 to 98% (v/v) linear gradient of solution B is applied, followed by elution with 98% of solution B until minute 25 and elution with 5% of solution B from minute 25.01 to minute 35.

[2] = system: rat under pentobarbital anesthesia; experiment: Test example 9: effect on blood pressure and heart rate of a rat under pentobarbital anesthesia; format: in vivo; settings: male SD rat, 3 mg/kg intravenous bolus; greatest change of mean blood pressure relative to before administration; mean ± standard deviation
Experimental: After measuring blood pressure and heart rate of a rat under pentobarbital anesthesia, an effect of intravenous bolus administration of a test compound on blood pressure and heart rate can be determined. To a male SD rat (Japan SLC Inc.), sodium pentobarbital (Tokyo Chemical Industry Co., Ltd.) is intraperitoneally administered for induction of anesthesia (50 mg/kg). As maintenance anesthetics, sodium pentobarbital is subcutaneously administered (25 mg/kg). Left femoral vein is exposed and stripped, and then a polyethylene tube SP10 (connected to a three-way stopcock via ¼ vein needle) which has been filled with physiological saline is inserted and left in the vein.
Left medial femoral region is cut to expose and strip the femoral artery, and then a polyethylene tube (SP31, connected to a three-way stopcock via 22 G injection needle by TERUMO Corporation) which has been filled with heparin physiological saline is inserted and connected to a pressure transducer. Blood pressure is measured from the pressure transducer by using a modified pressure amplifier (AP-641 G, Nihon Kohden Corporation). Heart rate is measured by using the Heart rate Counter (AT-601 g, Nihon Kohden Corporation) while having the pulse wave of the blood pressure as a trigger. The blood pressure, mean blood pressure and heart rate are transmitted to the data recorder for recordation. In addition, the mean blood pressure is recorded using a modified pressure amplifier (AP-641 G) according to the equation of {diastolic blood pressure+(systolic blood pressure−diastolic blood pressure)/3}.
Blood pressure and heart rate measurement is started, and after confirming that each value remains almost constant, the test compound (3 mg/kg) is administered to the left femoral vein for 30 seconds. Specifically, the test compound with 3 mg/mL concentration is bolus administered at the administration dose of 1 mL/kg. Relative value (%) at each time point compared to the mean blood pressure and the heart rate before the administration is obtained for each individual. […]

[3] = Test example 14: stability in phosphate buffer solution having pH 6.8; format: physicochemical; settings: for HPLC area percentage at 24 hours after the filtration / HPLC area percentage at 48 hours after the filtration / HPLC area percentage right after the filtration: phosphate buffer solution pH 6.8; for stability in phosphate buffer solution pH 6.8 (finding): up to 48 hours
Experimental: as §1
Except that pure water is replaced with phosphate buffer solution having pH 6.8, the test is carried out in the same method as Test example 13 to obtain the stability of the test compound.

[4] = system: urinary bladder smooth muscle isolated from common marmoset; experiment: Test example 7: relaxant activity on urinary bladder smooth muscle isolated from common marmoset; settings: strips contracted by 40 mmol/L KCl, papaverine 10^−4 mol/L relaxation = 100%
Experimental: Specifically, a common marmoset (CLEA Japan, Inc.) is bled to exsanguinated death, and then the urinary bladder is taken out of the marmoset via laparotomy. […] A resting tension of 1 g is applied to the strips, which is then equilibrated for more than 30 minutes. […] The final concentration is 10^−9, 10^−8, 10^−7, 10^−8, 10^−5 and 10^−4 mol/L. Upon the completion of the relaxation response to the test compound at the highest concentration, papaverine with final concentration of 10^−4 mol/L is added and the maximum relaxation response is obtained for each strip. This relaxation response is taken as 100%, and the relaxation ratio (%) is obtained for the test compound at the concentrations of 10^−5 and 10^−4 mol/L.

[5] = target: T1, human β3 adrenergic receptor (Homo sapiens, UniProt P13945); experiment: Test example 1-B: human β3 adrenergic receptor agonist activity (cAMP-Screen, 96-well); format: cell-based; settings: for Emax: 0.5 h, read-out: β3 receptor I.A.; for pEC50: Table 4, Test example 1-B, CHO cells with human β3 gene, cAMP
T1 construct: used as a probe to obtain the full length human β3 gene from a human genomic library (Clonetech); expressed in transfected cells; host or cells: CHO (Chinese hamster ovary) cells, pcDNA3, geneticin-selected
T1 sequence (P13945 whole entry): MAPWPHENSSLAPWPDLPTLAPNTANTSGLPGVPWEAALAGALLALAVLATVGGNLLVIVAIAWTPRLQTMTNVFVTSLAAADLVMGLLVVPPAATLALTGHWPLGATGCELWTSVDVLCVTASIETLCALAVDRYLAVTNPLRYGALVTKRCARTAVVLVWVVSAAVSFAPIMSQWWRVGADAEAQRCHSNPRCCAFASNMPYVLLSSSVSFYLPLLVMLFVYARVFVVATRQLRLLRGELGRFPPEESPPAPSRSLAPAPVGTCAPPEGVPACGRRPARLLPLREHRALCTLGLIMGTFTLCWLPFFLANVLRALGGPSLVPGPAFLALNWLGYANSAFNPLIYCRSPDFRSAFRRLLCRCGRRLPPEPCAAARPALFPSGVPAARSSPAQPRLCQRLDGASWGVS
Experimental: Human β3 adrenergic receptor agonist activity is determined using CHO (Chinese hamster ovary) cells transfected with pcDNA3 (Invitrogen) to which human β3 gene has been inserted. […] This human β3 cDNA fragment is used as a probe to obtain the full length human β3 gene from a human genomic library (Clonetech). The above cells are cultured in a Ham's F-12 medium containing 10% fetal bovine serum and 400 μg/mL geneticin (Invitrogen). After seeding these cells into a 96-well plate (2×10^4 cells/well) and culturing them for about 20 hours, they are allowed to stand in a serum-free Ham's F-12 medium (80 μL) for 15 minutes. The test compound is first dissolved in DMSO, serially diluted with Ham's F-12 comprising 100 mmol/L HEPES and 1 mmol/L isobutylmethylxanthine, and then 20 μL of the solution is added to the cells. After the cells are cultured for 30 minutes, the medium is removed, followed by addition of assay/lysis buffer (0.1 ml) included in cAMP-Screen Kit (manufactured by Applied Biosystems). The cells are incubated for 30 minutes at 37° C. The resulting cell lysate is determined to cAMP quantitation by using cAMP-Screen kit described above.

Compound | HPLC area percentage at 24 hours after the filtration [1] | HPLC area percentage at 48 hours after the filtration [1] | HPLC area percentage right after the filtration [1] | stability in pure water (finding) [1] | increase in MBP (%) [2] | HPLC area percentage at 24 hours after the filtration [3] | HPLC area percentage at 48 hours after the filtration [3] | HPLC area percentage right after the filtration [3] | stability in phosphate buffer solution pH 6.8 (finding) [3] | relaxant activity (%) 10^−4 M [4] | relaxant activity (%) 10^−5 M [4] | Emax [5] | pEC50 [5]
CS(=O)(=O)Nc1cccc([C@@H](O)CNCCOc2ccc3c(C4CC4)n[nH]c3c2)c1 [Example 1, (R)—N-(3-(1-Hydroxy-2-(2-(3-cyclopropylindazol-6-yloxy)ethylamino)ethyl)phenyl)methanesulfonamide] | 95.6% | 95.6% | 95.7% | stable | 2.7 ± 0.5% | 95.5% | 95.5% | 95.7% | stable | 55.7% | 38.6% | 77% | 7.82
CS(=O)(=O)Nc1cccc([C@@H](O)CNCCOc2ccc3c(C4CCC4)n[nH]c3c2)c1 [Example 2, (R)—N-(3-(1-Hydroxy-2-(2-(3-cyclobutylindazol-6-yloxy)ethylamino)ethyl)phenyl)methanesulfonamide] | 95.2% | 95.0% | 95.2% | stable | 4.0 ± 2.6% | 93.3% | 94.5% | 95.1% | stable | 65.6% | 50.8% | 68% | 7.25
